We go through 13 compounds from publication PMC9166766 (Experimental & Molecular Medicine, 2022).

No end group written: not given here.

Series [1] deals with CABIN1 peptide-CNA interaction. Put plainly: Immunoprecipitation of HA-mCherry-CABIN1 peptide and bound CNA from treated Jurkat T cells. The series is classed as cell-based. As to conditions: for CABIN1 peptide binding to CNA, effect of p38 inhibitor: 10 μM inhibitor, 16 h, n = 6.
From the text: We lysed the cells in IP150 buffer and immunoprecipitated Flag- and HA-tagged proteins with Anti-FLAG ® M2 Affinity Gel (Sigma–Aldrich) and Pierce™ Anti-HA Agarose (Thermo Fisher Scientific), respectively. […] To quantify the western blot results, we measured the band areas using ImageJ (https://imagej.nih.gov/ij/).
Values shown are the mean ± standard deviation.
Series [2] has as its system HIF-1α. The experiment in a line: HIF-1α stabilization in Jurkat T cells (western blot). The series is classed as cell-based. Particulars: DMOG. On the procedure:
Supplementary Fig. 4 No hydroxylation or O -GlcNAcylation occurred in the “PPTP” sequence a Jurkat T cells expressing HA-mCherry -CABIN1 peptide w ere tr eated with DMO G in a dose-dependent manner for 12 h. b Jurkat T cells expressing HA-mCherry-CABIN1 peptide were treated with 500 μ M DMOG in a time-depend ent manner. Each cell lysate was immunoprecipitated with HA antibody and CABIN1 peptide-bound CNA was detected by Western blotting. HIF-1α was det ected as a positive control for DMOG treat ment. c HEK293 T cells were transfected with GST-peptides and GST pull-down assay was conducted.
Hydroxyproline and O-linked glycosylation of the peptides were detected b y Western blotting.
(§1) (1 picture or pasted object on this page, not shown here)
(Immunoblotting shows a protein as a band on a membrane.)

The subject of series [3] is CABIN1 peptide threonine 9 phosphorylation. The experiment in a line: Phosphorylation of threonine 9 of the expressed peptide in Jurkat T cells (PXpTP western blot, LC-MS/MS). The series is classed as cell-based. Particulars: Jurkat; for phosphorylation of the CABIN1 peptide, effect of p38 inhibitor: 10 μM inhibitor, 16 h, n = 6. The source says: We lysed the cells in IP150 buffer and immunoprecipitated Flag- and HA-tagged proteins with Anti-FLAG ® M2 Affinity Gel (Sigma–Aldrich) and Pierce™ Anti-HA Agarose (Thermo Fisher Scientific), respectively. The composition of the buffer and the subsequent process was described previously. To quantify the western blot results, we measured the band areas using ImageJ (https://imagej.nih.gov/ij/).
We purified HA-mCherry-tagged CABIN1-L-1-2 peptides expressed in Jurkat T cells by immunoprecipitating 4 mg of lysates with Pierce™ Anti-HA Agarose. We eluted the bead-bound proteins by competition with 1 mg/ml HA peptide. After separation by SDS-PAGE and staining with Coomassie Brilliant Blue, we analyzed the purified proteins by LC-MS/MS (ProteomeTech, Inc., Seoul, Korea).
(§2) RU response units, NC negative control.
The phosphorylated threonine of the immunoprecipitated peptide with HA antibody was detected with [PXpTP] antibody. b In vitro kinase assays using purified GST-tagged CABIN1 peptide and PKC downstream kinases. c In vitro kinase assays using purified GST-tagged peptides and kinases included in the MAPK family. d Immunoprecipitation assays using Flag-MAPKs and HA-CABIN1 in HEK293T cells. e, f In vitro kinase assays using p38α and substituted CABIN1 peptides. g Jurkat T cells expressing HA-mCherry-tagged CABIN1 peptide were treated with 10 μM p38α inhibitors for 16 h. Immunoprecipitation was performed with HA antibody and detected by western blotting. h Phosphorylated threonine and peptide-bound CNA of g were measured using ImageJ, and the ratio of phosphorylation and calcineurin binding to the CABIN1 peptide was calculated (n = 6). […] Statistical differences were determined using one-way ANOVA. *p < 0.05, **p < 0.01, ***p < 0.001, CBB Coomassie Brilliant Blue, NC negative control.

The subject of series [4] is CNA (His-tagged calcineurin catalytic subunit). The experiment in a line: Surface plasmon resonance (Biacore T200).
Procedure: Using a Biacore T200 (Cytiva), we captured the biotin-labeled peptides on the surface of a Series S Sensor Chip SA (Cytiva). […] Each cycle was performed at 25 °C at a flow rate of 30 μl/min with 120 s of contact and 240 s of dissociation. We analyzed the kinetics of interactions using BIAevaluation 3.2 RC1 (Cytiva).
Biotinylated peptide-bound CNA was detected with His antibody. […] CNA concentrations ranged from 1.25, 2.5, 5, and 10 nM. […] Values shown are the mean ± standard deviation.
The subject of series [5] is CNA (calcineurin catalytic subunit). Particulars: biotinylated peptides, His-CNA. On the procedure:
(§3) GST-tagged peptides and His-tagged CNAα and β2 were expressed in Escherichia coli BL21(DE3)pLysS. When the OD600 reached 0.5, we treated the bacteria with IPTG (0.1 mM overnight at 18 °C or 1 mM for 4 h at 37 °C). We purified the proteins as described previously. We performed a His-pulldown assay with 0.5 ml of IP150 buffer with 0.5 mM EDTA. We mixed His-tagged CNA with GST-tagged peptides and captured it on Ni-NTA agarose beads (Qiagen, Hilden, Germany). We washed the beads three times with binding buffer and analyzed the proteins by western blotting. We pulled down the GST-tagged peptides using Glutathione Sepharose™ 4 Fast Flow (Cytiva, Marlborough, MA, USA) and the biotin-labeled peptides using Streptavidin Agarose Resin (Thermo Fisher Scientific).
as §2

Series [6] concerns CNAβ2 (calcineurin catalytic subunit). Put plainly: Mammalian two-hybrid assay (VP16 AD-CNAβ2 and GAL4 DBD-peptides, pG5-luc) in HEK293T cells. Particulars: for interaction with / binding affinity to CNA (mammalian two-hybrid): CNAβ2, 24 h, repeated three times. The class given is cell-based. As for the experimental part: (§4) To measure the transcriptional activity of NFAT, we cotransfected Jurkat T cells with GST-tagged peptides and NFAT-luc by electroporation. After 24 h, we pretreated the cells with 0.5 μM FK506 for 1 h and then treated them with 40 nM PMA and 1 μM ionomycin for 8 h. For the mammalian two-hybrid assay, we cotransfected HEK293T cells with GAL4 DBD-tagged CABIN1, VIVIT, chimeric and substituted peptides, VP16 activation domain-tagged CNAβ2, and pG5-luc (luciferase reporter plasmid containing the GAL4-responsive promoter) for 24 h. We lysed the harvested cells with a luciferase assay lysis buffer (17 mM KH2PO4, 183 mM K2HPO4, pH 7.8, 0.2% [v/v] Triton X-100) and sonicated them briefly. We measured luciferase activity for each cell lysate using an Infinite M200 (Tecan, Männedorf, Switzerland). In addition, we confirmed the expression level of the transfected proteins by Western blotting.
A mammalian two-hybrid assay using these peptides was performed (bottom). The compositions of the transfected DNA are described in Supplementary Fig. 1a–c. All experiments were repeated three times and are presented as the mean ± standard deviation. […] SE short exposure, LE long exposure, NC negative control, WT wild-type.
(§5) NC negative control, WT wild-type.

Series [7] shares this test system. Put plainly: Immunoprecipitation assay of Flag-CNAβ2 and tagged peptides in HEK293T cells. The series is classed as cell-based.
From the text: as §5, §2, §1

Series [8] has the same test system. Put plainly: In vitro His-pulldown assay of GST-tagged peptides with His-tagged CNA. The class given is binding. As to conditions: IP150 buffer with 0.5 mM EDTA. On the procedure: as §3, §5, §2
The test system of series [9] is NFAT transcriptional activity. The experiment in a line: NFAT-luc luciferase reporter assay in Jurkat T cells. The class given is cell-based. As to conditions: GST-tagged CABIN1 peptides, PMA and ionomycin, n = 3, T9V vs T6V. On the procedure:
as §4, §2, §1
A general note: A reporter such as luciferase makes a cellular process visible.

Series [10] concerns JNK1. Put plainly: In vitro kinase assay, JNK1. The series is classed as biochemical. As to conditions: GST-tagged peptide, 1 h, 30 °C, 50 μM ATP. On the procedure:
(§6) We used the purified GST-tagged peptides for the in vitro kinase assays with activated recombinant kinases obtained from Proqinase GmbH (Freiburg, Germany). We performed the kinase assays in reaction buffer (50 mM HEPES-NaOH, pH 7.5, 3 mM MgCl2, 3 mM MnCl2, 3 μM sodium orthovanadate, 1 mM dithiothreitol, 50 μM unlabeled ATP, 5 μCi ^32P-γ-ATP) for 1 h at 30 °C. We stopped the reaction by adding 5× sample buffer and separated the proteins using SDS-PAGE. The gel was stained with Coomassie Brilliant Blue, dried, and developed on X-ray film.
(§7) The phosphorylated threonine of the immunoprecipitated peptide with HA antibody was detected with [PXpTP] antibody. b In vitro kinase assays using purified GST-tagged CABIN1 peptide and PKC downstream kinases. c In vitro kinase assays using purified GST-tagged peptides and kinases included in the MAPK family. d Immunoprecipitation assays using Flag-MAPKs and HA-CABIN1 in HEK293T cells. e, f In vitro kinase assays using p38α and substituted CABIN1 peptides. g Jurkat T cells expressing HA-mCherry-tagged CABIN1 peptide were treated with 10 μM p38α inhibitors for 16 h. Immunoprecipitation was performed with HA antibody and detected by western blotting. h Phosphorylated threonine and peptide-bound CNA of g were measured using ImageJ, and the ratio of phosphorylation and calcineurin binding to the CABIN1 peptide was calculated (n = 6). […]

Series [11] concerns p38α. The experiment in a line: In vitro kinase assay, p38α. The series is classed as biochemical. As to conditions: GST-tagged peptide, 1 h, 30 °C, 50 μM ATP. On the procedure: as §6, §7
In series [12] the test system is ERK2. Put plainly: In vitro kinase assay, ERK2. The class given is biochemical. As to conditions: GST-tagged peptide, 1 h, 30 °C, 50 μM ATP. As for the experimental part: as §6, §7
On the set-up of series [13]: method as in PMID 24319282. As to conditions: ref [17]; cited from earlier work. The source says:
FK506 and cyclosporin A, respectively cooperating with FKBP12 or cyclophilin, spatially hinder the substrates’ access to the active site of calcineurin, inhibiting its phosphatase activity[30],[31].

The mark [14] stands for this setting: biotinylated peptide on SA chip, CNA 1.25-10 nM, HBS-EP+ pH 7.4, 25 °C, 30 μl/min, mean ± SD.

As to `COC(=O)CNC(=O)C(=O)OC` [DMOG, dimethyloxalylglycine], in [1] (DMOG dose-dependent 12 h or 500 μM time-dependent), the “CABIN1 peptide and CNA interaction, effect of DMOG” value is “did not affect the CABIN1 peptide and CNA interaction”. For the same compound, the HIF-1α stabilization entry in series [2] is reported as “stabilized hypoxia-inducible factor-1alpha (HIF-1α)”.
As for `Cc1ccccc1C(=O)c1ccc(Nc2ccc(Br)cc2N)cc1Cl` [EO 1428], the “CABIN1 peptide binding to CNA, effect of p38 inhibitor” value in series [1] is given as “decreasing its binding affinity for CNA”. Also, the “phosphorylation of the CABIN1 peptide, effect of p38 inhibitor” value in [3] is recorded as “significantly reduced phosphorylation of the CABIN1 peptide”.
Regarding `CCCCCCCCCCCCCC(=O)O[C@@H]1[C@@H](C)[C@@]2(O)[C@@H](C=C(CO)C[C@]3(O)C(=O)C(C)=C[C@@H]23)[C@@H]2C(C)(C)[C@]12OC(C)=O` [PMA, phorbol myristate acetate], in [3] (40 nM PMA, two hours after treatment), the “CABIN1 peptide phosphorylation after PMA” value is “CABIN1 peptide phosphorylation increased”.
As to `CCc1nc(-c2cccc(C)c2)c(-c2ccnc(NC(=O)c3ccccc3)c2)s1` [TAK 715], the “CABIN1 peptide binding to CNA, effect of p38 inhibitor” value in [1] is recorded as “decreasing its binding affinity for CNA”. Besides, the “phosphorylation of the CABIN1 peptide, effect of p38 inhibitor” value in series [3] is recorded as “significantly reduced phosphorylation of the CABIN1 peptide”.
“Biotin-AAAMAGFPPEITVTPP{pTHR}P [p-CABIN1-L-1]”: the “increase in binding affinity by phosphorylation of the 9th threonine” value in series [4] (SPR, phosphorylated vs unphosphorylated CABIN1 peptide) is “increased the binding affinity by approximately threefold”. Moreover, in [4] (setting [14]), the “Ka (association rate)” value was 3393.3±380.8 1/MS and the “Kd (dissociation rate)” value was 5.79e-4±3.2e-5 1/S. Also, the “affinity for CNA (streptavidin pulldown)” value in [5] was “dramatically increased the affinity for CNA”.
Regarding “CABIN1-L-1-1: CABIN1-L-1 with N-terminal residues removed (PPEITVTPPTP; also: GAL4 DNA-binding domain tag)”, in series [6], the “interaction with / binding affinity to CNA (mammalian two-hybrid)” value (shortened to “interaction with / binding affinity”) is reported as “still bound to CNA”.
With “CABIN1-L-1-3: CABIN1-L-1 with N-terminal residues removed (EITVTPPTP; also: GAL4 DNA-binding domain tag)”, the “interaction with / binding affinity” value in series [6] is “lost its binding affinity”.
For “CABIN1-L-2: CABIN1-L with C-terminal residues removed (FPPEITVTPPT; also: GAL4 DNA-binding domain tag)”, in series [6], the “interaction with / binding affinity” value is reported as “completely lost its binding affinity to CNA”.
Still for that read-out and setting: the value for “CABIN1-L: first 13-amino acid segment containing the PxIxIT motif, from CABIN1-14 (FPPEITVTPPTPT; also: GAL4 DNA-binding domain tag)” was “significantly stronger affinity for CNA than CABIN1-14”.
“T6V: CABIN1 peptide with threonine 6 substituted with valine (PEITVVPPTP; also: GST and HA tags, end not given here)”: the “interaction with CNA by immunoprecipitation” value in series [7] is given as “abolished the interaction”. In addition, the “interaction with CNA in vitro (His-pulldown)” value in series [8] is “abolished the interaction”.
In the case of “T9V: CABIN1 peptide with threonine 9 substituted with valine (PEITVTPPVP; not fully specified)”, the “interaction with CNA by immunoprecipitation” value in series [7] was “abolished the interaction in the cellular experiment”. Also, the “NFAT transcriptional activity restored by substitution” value in [9] is listed as “restored the CABIN1-suppressed transcriptional activity of NFAT more efficiently than the T6V substitution”. Moreover, the “interaction with CNA in vitro (His-pulldown)” value in series [8] was “not in vitro”.
On to “VIVIT PPTP: chimeric peptide with C-terminal sequence of VIVIT swapped for PPTP of CABIN1 (PVIVITPPTP; also: GAL4 DNA-binding domain tag)”, for which the “fold enhancement of interaction with CNA, VIVIT PPTP vs. L-1-2 WT (effect of N-terminal PVIVIT)” value in [6] (CNAβ2, VIVIT PPTP vs. L-1-2 WT) turned out to be 1.93 fold. In series [6] (CNAβ2, VIVIT PPTP vs. VIVIT 10-mer), the “fold enhancement of interaction with CNA, VIVIT PPTP vs. VIVIT 10-mer (effect of C-terminal PPTP)” value stood at 4.76 fold. Further, in series [10], the “phosphorylation by JNK1” value is “phosphorylated”. Besides, the “phosphorylation by p38α” value in series [11] was “phosphorylated”. Besides, the “phosphorylation by ERK2” value in [12] is “phosphorylated”.
In the case of cyclosporin A, the side effects entry in [13] is “nephrotoxicity, fibrogenesis, neurotoxicity, and diabetes”.
